Columns and labels:
rat F98 gliomas = test: Microarray analysis of OKN-007-treated vs untreated rat F98 gliomas; type: in vivo
Protocol: Mice and Treatments. Animal studies were conducted in accordance to the OMRF IACUC (Institutional Animal Care and Use Committee) policies, which follow NIH guidelines. For the F98 rat glioma cell implantation model, F98 cells (10^5 in 10-μ1 volume) were intracerebrally implanted with a stereotaxic device (2 mm lateral and 2 mm anterior to the bregma, and at a 3 mm depth) in a total of 15 Fischer 344 rats (male 200-250 gm). The animals were divided into two groups once tumors reached 10-20 mm^3 in volume (as determined by MRI): OKN-007 treated (n=8) and untreated (UT) (n=7) groups. Rats were treated until tumors reached 200-250 mm^3 in volume or for a total of 4-6 weeks. For the G55 GBM cell implantation model, two-month-old male nude mice (Hsd:Athymic Nude-Foxnlnu mice; Harlan Inc., Indianapolis, IN) were implanted intracerebrally with human G55 xenograft cells (1×10^6) per mL suspended in 4 μL in cell culture media of 1% agarose solution. Once tumors reached 10-15 mm^3 (determined via MRI), mice were either treated daily with OKN-007 in the drinking water (150 mg/kg; 0.20% w/v for a 20 g mouse), or every 3 days with TMZ (30 mg/kg). OKN-007 was dissolved in water and made fresh every 2 days. Water bottles were weighed, and the amount of OKN-007 consumed per mouse was determined. […] The average intake of OKN-007 was approximately 140-150 mg/kg/day/mouse. TMZ was dissolved in 5% DMSO and 5% solutol-15 in sterile saline and administered via gavage. Mice were treated until the tumors reached 100-150 mm^3 or for a total of 4-6 weeks. All groups were stratified to ensure that tumor sizes were similar before initiation of treatment.
RNA isolation and preparation. For the rat F98 glioma study, all rats were euthanized after the last MRI examination. The brain of each animal was removed, and snap frozen in liquid nitrogen, before storage in a −80° C. freezer. Total RNA from all tumor tissues from all treatment groups was purified with an RNeasy Mini Kit (Qiagen), and quantified by spectrophotometry (Nanodrop). cDNA was synthesized using SuperScript IV Reverse Transcriptase Kit (Invitrogen).
Microarray analysis. The Illumina TotalPrepTM RNA Amplification Kit was used for labeling cRNA (Ambion, Austin, Tex.), as previously described (Griffins et al., 2009). Four×four treated/untreated samples were profiled using Affymetrix RaGene-1_0-st-v1 microarrays. Exon-level-summarized measures were quantile-normalized and tested for differential expression using Significance Analysis of Microarrays (SAM, [PMID: 11309499]) at a false discovery rate (FDR) <40% and […]. Functional enrichment analysis was performed using Ingenuity Pathways Analysis (IPA) (Ingenuity® Systems, world-wide-web at ingenuity.com).

[1] = tested on: LBP (lipopolysaccharide binding protein); test: LBP ELISA in tumor tissue and blood serum of G55 glioma-bearing mice; type: in vivo, mouse
Protocol: Lipopolysaccharide binding protein (LBP) ELISA assay. The LBP ELISA kit (Antibodies-Online.com; ABIN370808) is specific for mouse LBP levels in serum, plasma and tissue samples. This is a colorimetric assay that was read on a micro plate reader for measurement of absorbance at 450/620 nm. LBP concentrations were calculated from a standard curve and multiplied by appropriate dilution factors.

[2] = in vivo; cited from earlier work
MGMT = test: RT-PCR gene-fold changes in human GBM cells; type: cell-based
Protocol: (§1) Quantification of mRNA by real-time quantitative RT-PCR for HIF-1a, MPG and MGMT. Total RNA from all cell lines with all treatments was purified with an RNeasy Mini Kit (Qiagen), and quantified by spectrophotometry (Nanodrop). cDNA was synthesized using SuperScript IV Reverse Transcriptase Kit (Invitrogen).
(§2) Target gene mRNA was amplified and measured by Bio-Rad CFX96™ Real Time System. Gene expression was determined using the SYBR Select Master Mix (Applied Biosystems). […] The reaction is characterized by the point during cycling when amplification of PCR products is first detected, rather than the amount of PCR product accumulated after a fixed number of cycles. The higher the starting quantity of the template, the earlier a significant increase in fluorescence is observed. The threshold cycle is defined as the fractional cycle number at which fluorescence passes a fixed threshold above the baseline. Fluorescence data were converted into cycle threshold measurements exported to Microsoft Excel. Glyceraldehyde-3-phosphatase dehydrogenase (GAPDH) mRNA expression levels were used as the quantitative internal control. For precise quantification, the mRNA expression level of each sample was normalized using the expression of the GAPDH gene.
(§3) All primers were synthesized by Integrated DNA Technologies. The primers used were: […]
(§4) were used to amplify 603-bp transcripts of MPG [9].

MPG = test: RT-PCR gene-fold changes in human GBM cells; type: cell-based
Protocol: as §1, §2, §3, §4

[3] = tested in vivo; cited from earlier work
[4] = tested on: LBP (lipopolysaccharide binding protein); test: LBP ELISA in tumor tissue and serum of F98 glioma-bearing rats; type: in vivo, rat
Excerpt: The inventor also discovered a potential biomarker, LBP (lipopolysaccharide binding protein), that is elevated in tumors of rat F98 glioma-bearing rats (assessed by ELISA), and in GBM human tissue samples (assessed by immunohistochemistry). […] The inventor used an ELISA kit for LBP to assess this biomarker as an efficacy marker in both G55-tumor-bearing mice in both tumor tissue and blood serum, either untreated or treated with TMZ, OKN-007 or TMZ +OKN-007.
Mice and Treatments. Animal studies were conducted in accordance to the OMRF IACUC (Institutional Animal Care and Use Committee) policies, which follow NIH guidelines. For the F98 rat glioma cell implantation model, F98 cells (10^5 in 10-μ1 volume) were intracerebrally implanted with a stereotaxic device (2 mm lateral and 2 mm anterior to the bregma, and at a 3 mm depth) in a total of 15 Fischer 344 rats (male 200-250 gm). The animals were divided into two groups once tumors reached 10-20 mm^3 in volume (as determined by MRI): OKN-007 treated (n=8) and untreated (UT) (n=7) groups. […] Once tumors reached 10-15 mm^3 (determined via MRI), mice were either treated daily with OKN-007 in the drinking water (150 mg/kg; 0.20% w/v for a 20 g mouse), or every 3 days with TMZ (30 mg/kg). […] Water bottles were weighed, and the amount of OKN-007 consumed per mouse was determined. […]

[5] = microarray, F98 gliomas, OKN treatment vs UT

CC(C)(C)[N+]([O-])=Cc1ccc(S(=O)(=O)O)cc1S(=O)(=O)O [OKN-007, 2,4-disulfonyl phenyl tert-butyl nitrone]
number of down-regulated genes with TGFβ1 as master (upstream) regulator (rat F98 gliomas; Upstream Regulator Analysis, IPA, rat F98 treated gliomas vs untreated tumors): 57 genes | TGFβ1 downregulation (rat F98 gliomas; microarray, F98 gliomas treated with OKN-007 vs UT): ~2 fold | number of genes upregulated (rat F98 gliomas; [5]): 3 genes | number of genes with at least one exon significantly downregulated (rat F98 gliomas; [5]): 384 genes | decrease in gene expression for LBP (rat F98 gliomas; microarray, rat F98 glioma model, treated vs untreated tumors): > 2 fold | LBP levels in tumor tissues compared to UT mice [1]: significantly less | crossing of the blood brain barrier [2]: can readily cross the BBB | RT-PCR gene-fold change MGMT (MGMT; LN18 cells (TMZ-resistant), UT 1.06): 0.42 fold | RT-PCR gene-fold change MGMT (MGMT; T98 cells (TMZ-resistant), UT 1.00): 0.54 fold | RT-PCR gene-fold change MGMT (MGMT; U251 cells (TMZ-sensitive), UT 1.00): 1.22 fold | RT-PCR gene-fold change MPG (MPG; G55 cells (TMZ-resistant), UT 1.06): 4.52 fold | RT-PCR gene-fold change MPG (MPG; LN18 cells (TMZ-resistant), UT 1.00): 0.60 fold | RT-PCR gene-fold change MPG (MPG; LN229 cells (TMZ-sensitive), UT 1.10): 0.62 fold | RT-PCR gene-fold change MPG (MPG; T98 cells (TMZ-resistant), UT 1.10): 0.62 fold | RT-PCR gene-fold change MPG (MPG; U138 cells (TMZ-resistant), UT 1.13): 11.10 fold | RT-PCR gene-fold change MPG (MPG; U251 cells (TMZ-sensitive), UT 1.10): 0.81 fold | efficacy as compared to PBN [3]: unexpected increase in efficacy | potency as compared to PBN [3]: increase in potency | toxicity as compared to PBN [3]: marked and highly significant decrease in toxicity | LBP levels in tumor tissues compared to untreated gliomas ([4]; F98 glioma bearing rats, p<0.0001): significant decrease in LBP levels | serum levels of LBP compared to untreated tumor-bearing rats ([4]; F98 glioma-bearing rats, p<0.001): significantly lower
